In patent US20260078120A1, “SUBSTITUTED PYRIDOPYRIMIDINONES” (MIRATI THERAPEUTICS, INC., priority 2022, published 2026):
Each block holds one compound with its values, some of them ahead of it.

Tests used:
[1] = system: T47D (PI3Kα H1047R mutant) cells; assay: CellTiter-Glo 2.0 luminescent cell viability assay, 72 hours, T47D cells; type: cell-based; conditions: Homo sapiens, T47D, 72 h, T47D (PI3Kα H1047R mutant) cells, CellTiter-Glo, approximately 72 hours; read-out: T47D (H1047R mutant) Viability IC50
Method in brief: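 Viability was measured by CellTiter-Glo 2.0 luminescence after approximately 72 h of compound exposure at 37° C. Plating was 1000 cells per well the day before dosing, with ten 1:4 dilutions from a 10 µM top concentration. Values as percent of vehicle were fitted by variable-slope log(inhibitor) regression to give IC50.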

[2] = system: SKBR3 (PI3Kα wild type) cells; assay: CellTiter-Glo 2.0 luminescent cell viability assay, 72 hours, SKBR3 cells; type: cell-based; conditions: Homo sapiens, SK-BR-3, 72 h, SKBR3 (PI3Kα wild type) cells, CellTiter-Glo, approximately 72 hours; read-out: SKBR3 (WT) Viability IC50
Method in brief: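 Viability measured via CTG luminescence following roughly 72 hours of compound exposure at 37° C. Dosing used a 10 um starting concentration diluted 1:4 over 10 points; percent-of-vehicle data fitted with a variable-slope four-parameter model for IC50.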

Compound: Cc1cc([C@@H](C)Nc2ccccc2C(=O)O)c2nc(N3CC4(CN(c5ccc(C#N)cc5)C4)C3)c(C)c(=O)n2c1 [Example 11-191, (R)-2-((1-(2-(6-(4-cyanophenyl)-2,6-diazaspiro[3.3]heptan-2-yl)-3,7-dimethyl-4-oxo-4H-pyrido[1,2-a]pyrimidin-9-yl)ethyl)amino)benzoic acid]
IC50 [1]: 1.06 µM | IC50 [2]: > 10 µM

Compound: Cc1cc(C(C)Nc2ccccc2C(=O)O)c2nc(N3Cc4ccccc4C3=O)c(C)c(=O)n2c1 (stereo not shown) [Example 11-362, 2-((1-(3,7-dimethyl-4-oxo-2-(1-oxoisoindolin-2-yl)-4H-pyrido[1,2-a]pyrimidin-9-yl)ethyl)amino)benzoic acid]
IC50 [1]: 1.37 µM | IC50 [2]: > 10 µM

Compound: Cc1cc([C@@H](C)Nc2ccccc2C(=O)O)c2nc(NC[C@@H]3CCOC3)c(C#N)c(=O)n2c1 [Example 11-192, 2-(((R)-1-(3-cyano-7-methyl-4-oxo-2-((((S)-tetrahydrofuran-3-yl)methyl)amino)-4H-pyrido[1,2-a]pyrimidin-9-yl)ethyl)amino)benzoic acid]
IC50 [1]: 2.44 µM | IC50 [2]: > 10 µM

Compound: CC(=O)N1CC=C(c2cc(=O)n3cc(C)cc([C@@H](C)Nc4ccccc4C(=O)O)c3n2)CC1 [Example 11-379, (R)-2-((1-(2-(1-acetyl-1,2,3,6-tetrahydropyridin-4-yl)-7-methyl-4-oxo-4H-pyrido[1,2-a]pyrimidin-9-yl)ethyl)amino)benzoic acid]
IC50 [1]: 3.91 µM | IC50 [2]: > 10 µM

Compound: Cc1cc([C@@H](C)Nc2ccccc2C(=O)O)c2nc(N3CCN(c4ccc(C(F)(F)F)cc4C#N)C[C@@H]3C)c(C#N)c(=O)n2c1 [Example 11-77, 2-(((R)-1-(3-cyano-2-((S)-4-(2-cyano-4-(trifluoromethyl)phenyl)-2-methylpiperazin-1-yl)-7-methyl-4-oxo-4H-pyrido[1,2-a]pyrimidin-9-yl)ethyl)amino)benzoic acid]
IC50 [1]: 0.552 µM | IC50 [2]: > 10 µM

Compound: CCC(O)c1cc(C)cn2c(=O)cc(N3CCCCC3)nc12 (stereo not shown) [Example 11-410, 9-(1-hydroxypropyl)-7-methyl-2-(piperidin-1-yl)-4H-pyrido[1,2-a]pyrimidin-4-one]
IC50 [1]: > 10 µM | IC50 [2]: > 10 µM

Compound: Cc1cc(C(C)Nc2ccccc2C(=O)O)c2nc(-c3ccn(C)n3)cc(=O)n2c1 (stereo not shown) [Example 11-404, 2-((1-(7-methyl-2-(1-methyl-1H-pyrazol-3-yl)-4-oxo-4H-pyrido[1,2-a]pyrimidin-9-yl)ethyl)amino)benzoic acid]
IC50 [1]: > 10 µM | IC50 [2]: > 10 µM

Compound: CC(=O)N1CCC(c2nc3c([C@@H](C)Nc4ccccc4C(=O)O)cc(C)cn3c(=O)c2C#N)CC1 [Example 11-256, (R)-2-((1-(2-(1-acetylpiperidin-4-yl)-3-cyano-7-methyl-4-oxo-4H-pyrido[1,2-a]pyrimidin-9-yl)ethyl)amino)benzoic acid]
IC50 [1]: 0.511 µM | IC50 [2]: > 10 µM

The next lines start with the values.

IC50 [1]: 0.065 µM | IC50 [2]: > 10 µM
Compound: CCc1cc([C@@H](C)Nc2ccccc2C(=O)O)c2nc(N3CCC(F)(F)CC3)c(C#N)c(=O)n2c1 [Example 10-46, (R)-2-((1-(3-cyano-2-(4,4-difluoropiperidin-1-yl)-7-ethyl-4-oxo-4H-pyrido[1,2-a]pyrimidin-9-yl)ethyl)amino)benzoic acid]

IC50 [1]: 0.274 µM | IC50 [2]: > 10 µM
Compound: Cc1cc([C@@H](C)Nc2ccccc2C(=O)O)c2nc(N3CCOCC3)c(C#N)c(=O)n2c1 [Example 11-318, (R)-2-((1-(3-cyano-7-methyl-2-morpholino-4-oxo-4H-pyrido[1,2-a]pyrimidin-9-yl)ethyl)amino)benzoic acid]

IC50 [1]: 0.195 µM | IC50 [2]: > 10 µM
Compound: Cc1cc([C@@H](C)Nc2ccccc2C(=O)O)c2nc(N3CCCC(F)(F)C3)c(C#N)c(=O)n2c1 [Example 11-297, (R)-2-((1-(3-cyano-2-(3,3-difluoropiperidin-1-yl)-7-methyl-4-oxo-4H-pyrido[1,2-a]pyrimidin-9-yl)ethyl)amino)benzoic acid]

IC50 [1]: 0.651 µM | IC50 [2]: > 10 µM
Compound: Cc1cc([C@@H](C)Nc2ccccc2C(=O)O)c2nc(NC3CCC3)c(C)c(=O)n2c1 [Example 11-99, (R)-2-((1-(2-(cyclobutylamino)-3,7-dimethyl-4-oxo-4H-pyrido[1,2-a]pyrimidin-9-yl)ethyl)amino)benzoic acid]

IC50 [1]: 0.162 µM | IC50 [2]: > 10 µM
Compound: Cc1cc([C@@H](C)Nc2ccccc2C(=O)O)c2nc(N3CCCCCC3)c(C#N)c(=O)n2c1 [Example 11-319, (R)-2-((1-(2-(azepan-1-yl)-3-cyano-7-methyl-4-oxo-4H-pyrido[1,2-a]pyrimidin-9-yl)ethyl)amino)benzoic acid]

IC50 [1]: 0.441 µM | IC50 [2]: > 10 µM
Compound: Cc1cc([C@@H](C)Nc2ccccc2C(=O)O)c2nc(N3CCC(C#N)CC3)c(C#N)c(=O)n2c1 [Example 11-72, (R)-2-((1-(3-cyano-2-(4-cyanopiperidin-1-yl)-7-methyl-4-oxo-4H-pyrido[1,2-a]pyrimidin-9-yl)ethyl)amino)benzoic acid]

IC50 [1]: > 10 µM | IC50 [2]: > 10 µM
Compound: Cc1cc([C@@H](C)Nc2ccccc2C(=O)O)c2nc(N3CCn4c(nnc4C(F)(F)F)C3)c(C)c(=O)n2c1 [Example 11-217, (R)-2-((1-(3,7-dimethyl-4-oxo-2-(3-(trifluoromethyl)-5,6-dihydro-[1,2,4]triazolo[4,3-a]pyrazin-7(8H)-yl)-4H-pyrido[1,2-a]pyrimidin-9-yl)ethyl)amino)benzoic acid]

IC50 [1]: > 10 µM | IC50 [2]: > 10 µM
Compound: CC(Nc1ccccc1C(=O)O)c1cc(C#N)cn2c(=O)cc(N3CCC(F)(F)CC3)nc12 (stereo not shown) [Example 11-419, 2-((1-(7-cyano-2-(4,4-difluoropiperidin-1-yl)-4-oxo-4H-pyrido[1,2-a]pyrimidin-9-yl)ethyl)amino)benzoic acid]

IC50 [1]: 0.0716 µM | IC50 [2]: > 10 µM
Compound: Cc1cc([C@@H](C)Nc2ccccc2C(=O)O)c2nc(N3CCC4(CCOC4)C3)c(C)c(=O)n2c1 (stereo partly drawn) [Example 10-138, 2-(((1R)-1-(3,7-dimethyl-4-oxo-2-(2-oxa-7-azaspiro[4.4]nonan-7-yl)-4H-pyrido[1,2-a]pyrimidin-9-yl)ethyl)amino)benzoic acid]

IC50 [1]: 0.347 µM | IC50 [2]: > 10 µM
Compound: Cc1cc([C@@H](C)Nc2ccccc2C(=O)O)c2nc(N3CC(F)(F)C[C@@H]3C)c(C)c(=O)n2c1 [Example 11-126, 2-(((R)-1-(2-((S)-4,4-difluoro-2-methylpyrrolidin-1-yl)-3,7-dimethyl-4-oxo-4H-pyrido[1,2-a]pyrimidin-9-yl)ethyl)amino)benzoic acid]

IC50 [1]: 0.187 µM | IC50 [2]: > 10 µM
Compound: Cc1cc([C@@H](C)Nc2ccccc2C(=O)O)c2nc(N3CC(O)C4(CCC4)C3)c(C)c(=O)n2c1 (stereo partly drawn) [Example 11-28, 2-(((1R)-1-(2-(8-hydroxy-6-azaspiro[3.4]octan-6-yl)-3,7-dimethyl-4-oxo-4H-pyrido[1,2-a]pyrimidin-9-yl)ethyl)amino)benzoic acid]

IC50 [1]: 0.227 µM | IC50 [2]: > 10 µM
Compound: Cc1c(N2CCC(F)(F)CC2)nc2c([C@@H](C)Nc3ccccc3C(=O)O)cc(C(F)F)cn2c1=O [Example 11-171, (R)-2-((1-(7-(difluoromethyl)-2-(4,4-difluoropiperidin-1-yl)-3-methyl-4-oxo-4H-pyrido[1,2-a]pyrimidin-9-yl)ethyl)amino)benzoic acid]
